According to patent US20220062299A1, “USE OF GLUCOCORTICOID STEROIDS IN PREVENTING AND TREATING CONDITIONS OF MUSCLE WASTING, AGING AND METABOLIC DISORDER” (NORTHWESTERN UNIVERSITY, priority 2018, published 2022):

Test system: Wildtype (WT) mice fed high-fat chow
Assay: Diet-induced obesity, wildtype mice on high-fat chow, 8 weeks
Format: in vivo, mouse
Description: Glucose was measured in blood (first drop from tail venipuncture) or serum (5 μl of 1:2 dilution) with an AimStrip Plus glucometer system (Germaine Laboratories, San Antonio, Tex.) and expressed as mg/dl values. Lactate was measured in blood (second drop from tail venipuncture) or serum (5 μl of 1:2 dilution) with a Lactate Plus reader (Nova Biomedical, Waltham, Mass.) and expressed as mM values. Fasting glycemia was measured in mice after 4 hours fasting (7 AM-11 AM). Glucose, insulin and pyruvate tolerance tests were conducted after 4 hours fasting in individual cages immediately after baseline fasting glucose monitoring. Mice were injected with either 1 g/kg glucose (#D8375-1 g; Millipore Sigma, St Louis, Mo.), or 0.5 U/kg insulin (#12585014; Thermo Fisher, Waltham, Mass.), or 2.5 g/kg pyruvate (#P5280-25 g; Millipore Sigma, St Louis, Mo.) in 200 μl intraperitoneal injections, and glucose was then monitored by tail venipuncture at 10 min, 20 min, 30 min, 60 min, 120 min after injection. All glucose and pyruvate tolerance tests were conducted blinded to treatment groups.
MRI scan. Magnetic resonance imaging (MRI) scans to determine fat and lean mass ratios (% of total body weight) were conducted in non-anesthetized, non-fasted mice at 2 PM using the EchoMRI-100H Whole Body Composition analyzer (EchoMRI, Houston, Tex.). Mice were weighed immediately prior to MRI scan. Before each measurement session, system was calibrated using the standard internal calibrator tube (canola oil). Mice were typically scanned in sample tubes dedicated to mice comprised between 20 g and 40 g body mass. Data were collected through built-in software EchoMRI version 140320. Data were analyzed when hydration ratio >85%. MRI scans were conducted blinded to treatment groups.
Muscle function, whole-body plethysmography, echocardiography. Forelimb grip strength was monitored using a meter (Cat #1027SM; Columbus Instruments, Columbus, Ohio) blinded to treatment groups. Animals performed ten pulls with 5 seconds rest on a flat surface between pulls. Immediately before sacrifice, in situ tetanic force from tibialis anterior muscle was measured using a Whole Mouse Test System (Cat #1300A; Aurora Scientific, Aurora, ON, Canada) with a 1N dual-action lever arm force transducer (3000-LR, Aurora Scientific, Aurora, ON, Canada) in anesthetized animals (0.8 I/min of 1.5% isoflurane in 100% O2). Tetanic isometric contraction was induced with following specifications: initial delay, 0.1 sec; frequency, 200 Hz; pulse width, 0.5 msec; duration, 0.5 sec; using 100 mA stimulation (Quattrocelli et al., 2015). Length was adjusted to a fixed baseline of 50 mN resting tension for all muscles/conditions. Fatigue analysis was conducted by repeating tetanic contractions every 10 seconds until complete exhaustion of the muscle (50 cycles). Time of contraction was assessed as time to max tetanic value within the 0.0-0.5 sec range of each tetanic contraction, while time of relaxation was assessed as time to 90% min tetanic value within the 0.5-0.8 sec range of every tetanus. […] Data was recorded for a total of 15 minutes broken into 3 consecutive 5-minute periods. […] Cardiac function was assessed by echocardiography, which was conducted under anesthesia (0.8 L/min of 1.5% vaporized isoflurane in 100% O2) on mice between 2 and 5 days before sacrifice. […]

## C[C@]12C=CC(=O)C=C1CC[C@@H]1[C@@H]2C(=O)C[C@@]2(C)[C@H]1CC[C@]2(O)C(=O)CO [prednisone, Prednisone]
Weekly prednisone
  gain of hyperglycemia (fasting blood glucose over time): reduced
  lean mass retention: improved
Weekly prednisone 1 mg/kg i.p., vs vehicle
  gain of body weight and fat mass: slightly but significantly reduced
Weekly prednisone, endpoint
  body-wide glucose homeostasis (glucose and insulin tolerance tests): improved
  grip strength, tetanic force production and aerobic exercise capacity: improved
